Assay results as given in PMC10046377, “Inhibitors of the Oncogenic PA2G4-MYCN Protein-Protein Interface” (Cancers, 2023).

System: SHEP MYCN3 cells
Assay: Alamar Blue viability, SHEP MYCN3 cells with Dox-inducible MYCN induction
Assay type: cell-based, human
Details: Dox-induced MYCN expression, 72 h treatment, compared with DMSO treated controls and WS6
From the text: The MYCN amplified neuroblastoma cell line SK-N-BE(2)-C was kindly provided by Professor June Biedler (Memorial Sloan Kettering Cancer Centre, New York, NY, USA), and Kelly was obtained from European Collection of Cell Cultures. The two normal lung fibroblast cell lines (MRC-5 and WI-38) were purchased from ATCC. SK-N-BE(2)-C shMYCN#2 doxycycline-inducible cell and Kelly shMYCN#2 doxycycline-inducible cell were custom-made by GenScript (Piscataway, NJ, USA). SK-N-BE(2)-C, SK-N-BE(2)-C shMYCN#2, and SHEP MYCN3 doxycycline-inducible cells were maintained in Dulbecco’s modified Eagle’s medium (DMEM) (Invitrogen, Life Technologies, Waltham, MA, USA) with 10% foetal calf serum (FCS). […]
Cell viability was determined by the Alamar Blue assay (75 mg resazurin, 12.5 mg methylene blue, 164.5 mg potassium hexacyanoferrate (III), 211 mg potassium hexacyanoferrate (II) trihydrate in 500 mL of phosphate buffered saline). After 6 h incubation with Alamar Blue, the change of fluorescence was measured by Victor 3 multilabel Plate Reader (Perkin Elmer Australia, Melburne, Australia) at an excitation wavelength of 560 nm and an emission wavelength of 590 nm.
Next, we examined whether #5333 and #5338 treatment for 48 h affected the levels of WS6 target proteins, PA2G4, and MYCN in neuroblastoma cells. […] Cell viability was measured following #5333 and #5338 treatments for 48–72 h. […]

Row | Structure (SMILES) | change of IC50 on MYCN induction, SHEP MYCN3
1 | Cc1cccc(Oc2cc(N3CCC(C(=O)NCc4cccc(Br)c4)CC3)ncn2)c1C [#5333] | significant decrease in IC50
2 | Cc1cccc(Oc2cc(N3CCC(C(=O)N[C@@H](C)CCc4ccccc4)CC3)ncn2)c1C [#5338] | significant decrease in IC50
